Source: PMC7417721, “Cell cycle exit during bortezomib‐induced osteogenic differentiation of mesenchymal stem cells was mediated by Xbp1s‐upregulated p21^Cip1 and p27^Kip1” (Journal of Cellular and Molecular Medicine, 2020)
pIC50: −log10 of the molar value. Where two headings read alike, the source gives them in different places.

Assays:
[1] = system: cyclin D3, cyclin E1, Cdk2, Cdk4, p21Cip1, p27Kip1 in mBM-MSCs; assay: Western blotting of cell cycle regulatory components (cyclins, CDKs, CKIs); format: cell-based, mouse; settings: 24 h
Procedure: (§1) Western blotting was performed as described previously. ^16 Briefly, mBM‐MSCs were cultured with indicated doses of bortezomib for 24 h; then, the cells were lysed in radioimmunoprecipitation assay (RIPA) buffer. Equal amount of proteins was loaded on 10% sodium dodecyl sulphate‐polyacrylamide gel electrophoresis (SDS‐PAGE) gel and was then electrotransferred to polyvinylidene difluoride (PVDF) membrane immunoblotted for specific primary antibodies. Immunoblots were visualized using horseradish peroxidase (HRP)‐conjugated secondary antibodies (Jackson ImmunoResearch Laboratories, West Grove, PA, USA) and the enhanced chemiluminescence (ECL) Western Blot Detection Kit (Phygene Life Sciences, Fuzhou, Fujian, China). The chemiluminescent blots were captured by using digital imaging with a charge‐coupled device (CCD) camera system MiniChemi 610 and analysed by Lane 1D™ analysis software (Sage, Beijing, China).

[2] = system: Grp78, Chop, Xbp1s, Atf4 in mBM-MSCs; assay: Western blotting of ER stress signalling proteins; format: cell-based, mouse; settings: 24 h
Procedure: as §1

[3] = system: p21Cip1 and p27Kip1 mRNA in mBM-MSCs; assay: Real-time PCR of p21Cip1 and p27Kip1 mRNA; format: cell-based, mouse; settings: 24 h
Procedure: Total RNA from cells was extracted using Ultrapure RNA Kit (DNase I) (CWBIO, Beijing, China) according to the manufacturer's instructions. Reverse transcription was performed using HiFiScript cDNA Synthesis Kit (CWBIO, Beijing, China). Real‐time PCR was performed using UltraSYBR Mixture (CWBIO, Beijing, China) and a CFX96™ Real‐Time PCR Detection System (Bio‐Rad, Hercules, CA, USA). The thermal cycling conditions included 2 min at 50°C and 10 min at 95°C, followed by 40 cycles of 95°C for 15 s, 58°C for 30 s and 72°C for 30 s. Mouse β‐actin was used as internal control. The relative expression levels of each gene were analysed using the 2^‐ΔΔCt method. The primers were designed using Primer3Plus platform (http://www.bioinformatics.nl/primer3plus) and synthesized by Sangon Biotech (Shanghai, China).

[4] = system: mBM-MSCs; assay: Cell cycle analysis (propidium iodide, flow cytometry); format: cell-based, mouse; settings: 24 h; for proportion of S phase cells: mean ± SEM of three experiments (control 32.017 ± 1.991); for percentage of cells in G0/G1 phase: mean ± SEM of three experiments (control 55.14 ± 5.132)
Procedure: mBM‐MSCs (5 × 10^5 cells) treated with various concentrations of bortezomib for 24 h were harvested, washed with PBS solution, fixed in 70% ethanol and kept at −20°C overnight. Cells were then resuspended in a buffer containing […] propidium iodide and […] RNase A (Solarbio Life Sciences, Beijing, China). Samples were analysed using a BD FACSCanto II flow cytometer. Data were acquired and analysed using CellQuest and ModFit software (BD Biosciences, San Jose, CA, USA).

[5] = system: mBM-MSCs; assay: EdU cell proliferation assay (flow cytometry); format: cell-based, mouse; settings: various concentrations, 24 h
Procedure: 5‐ethynyl‐2′‐deoxyuridine (EdU) incorporation assay was performed to measure cell proliferation with the kit (Molecular Probes, Eugene, OR, USA) according to the manufacturer's instructions. Briefly, mBM‐MSCs were seeded and grown at a density of 70%‐80% confluence in 35‐mm culture dishes and then treated with various concentrations of bortezomib for 24 h. EdU was added to the culture media 4 h before the harvest. The cells were detected by flow cytometry using a BD FACSCanto II instrument. Data were analysed using FlowJo 7.6.2 software (Tree Star, Ashland, OR, USA).

[6] = system: Runx2, Sp7, Col1A1, ALP, OCN/BGLAP in mBM-MSCs; assay: Western blotting of osteogenesis-related proteins; format: cell-based, mouse; settings: indicated concentrations, 24 h, Figure S1
Procedure: as §1

[7] = system: mBM-MSCs; assay: Alizarin Red S staining of mineralized matrix (osteogenic differentiation); format: cell-based, mouse; settings: 8 days
Procedure: mBM‐MSCs were plated in 35‐mm‐diameter culture dishes and grown in DMEM containing 10% FBS, 100 U/mL penicillin, 100 μg/mL streptomycin, and 2 mM L‐glutamine at 37°C in a humidified incubator with 5% CO2 in the air. When cell density reached 70%‐80% confluence, the cells were subsequently cultured in the presence or absence of bortezomib at the indicated concentrations for 8 days. The culture medium was changed every 3 days. mBM‐MSCs cultured in an osteogenic induction media containing […] ascorbic acid and 10 mM β‐glycerophosphate sodium were used as a positive control. For Alizarin Red S (ARS) (Solarbio Life Sciences, Beijing, China) staining, mBM‐MSCs were fixed with 4% formaldehyde for 10 min, then rinsed twice with phosphatebuffered saline (PBS) at room temperature. The cells were then stained with 1% ARS (pH 4.2) for up to 15 min at room temperature. Images of mBM‐MSCs stained with ARS were captured and stored digitally.

[8] = system: mBM-MSCs; assay: MTT cell viability assay; settings: for pIC50: Mus musculus, read-out: IC50, cell viability
Procedure: mBM‐MSCs were seeded at a cell density of 5 × 10^3 cells/mL in 96‐well plates and allowed to attach to the wells for 24 h. Cells were then treated with various concentrations of bortezomib. After 24‐h and 48‐h treatment, 10 µL of 3‐(4,5‐dimethylthiazol‐2‐yl)‐2,5‐diphenyltetrazolium bromide (MTT) solution (Sigma‐Aldrich, Burlington, MA, USA) was added to each well to a final concentration of 0.5 mg/mL. The supernatant medium was then discarded, and a volume of 150 µL of DMSO was added to each well to lyse the crystal. The plates were agitated for 15 min to ensure the dissolution of any remaining crystals. The absorbance in the relevant wells was measured at 490 nm using an Ultra Microplate Reader (ELx800, BioTek Instruments, Winooski, VT, USA). Each experiment was reproduced three times in duplicate.

[9] = MKC3946 10 nM with bortezomib 2.5 nM

`Cn1cc(-c2ccc3c(c2)CCN3C(=O)Cc2cccc(C(F)(F)F)c2)c2c(N)ncnc21` [GSK2606414] was tested, and the “expression of p21Cip1 (protein)” value ([1]; in the presence of bortezomib) was “no significant effects”, the “expression of p27Kip1 (protein)” value ([1]; in the presence of bortezomib) was “no significant effects” and the “Atf4 (protein)” value ([2]; in the presence of bortezomib) was “marked decrease”.

In the case of `CN1CCN(C(=O)c2ccc(-c3ccc4c(C=O)c(O)ccc4c3)s2)CC1` [MKC3946], the “expression of p21Cip1 (protein)” value ([1]; in the presence of bortezomib) was “decrease”, the “expression of p27Kip1 (protein)” value ([1]; in the presence of bortezomib) was “decrease” and the “mRNA level of p21Cip1” value [3, 9] was “aborted up‐regulation”. For the same compound, the “mRNA level of p27Kip1” value [3, 9] was “aborted up‐regulation”, the “bortezomib-induced Xbp1s (protein)” value ([2]; in the presence of bortezomib) was “aborted” and the cell cycle distribution ([4]; 10 nM MKC3946 alone, Figure S2) was “no effects”. For the same compound, the “percentage of S phase” value ([4]; combination of 10 nM MKC3946 with 2.5 nM bortezomib, Figure S2) was “significantly decreased”.

With `CC(C)C[C@H](NC(=O)[C@H](Cc1ccccc1)NC(=O)c1cnccn1)B(O)O` [bortezomib, Bortezomib] the “expression of Cdk2 (protein)” value ([1]; indicated concentrations) was “markedly decreased”, the “expression of Cdk4 (protein)” value ([1]; indicated concentrations) was “markedly decreased” and the “expression of cyclin D3 (protein)” value ([1]; indicated concentrations) was “no effects”. The “expression of cyclin E1 (protein)” value ([1]; indicated concentrations) was “no effects”, the “expression of p21Cip1 (protein)” value ([1]; indicated concentrations) was “significantly increased” and the “expression of p27Kip1 (protein)” value ([1]; indicated concentrations) was “significantly increased”. For the same compound, the “mRNA level of p21Cip1” value ([3]; 2.5 nM) was “significantly up‐regulated”, the “mRNA level of p27Kip1” value ([3]; 2.5 nM) was “significantly up‐regulated” and the “expression of Atf4” value ([2]; indicated concentrations) was “activated”. For the same compound, the “expression of ER stress marker Chop” value ([2]; indicated concentrations) was “increased expression levels”, the “expression of ER stress marker Grp78” value ([2]; indicated concentrations) was “increased expression levels” and the “expression of Xbp1s” value ([2]; indicated concentrations) was “activated”. For the same compound, the “numbers of EdU-positive mBM-MSCs” value [5] was “dose‐dependently decreased”, the “expression of Col1A1” value [6] was “induce the expression” and the “expression of Runx2” value [6] was “induce the expression”. The “expression of Sp7” value [6] was “induce the expression”, the “expression of alkaline phosphatase (ALP)” value [6] was “induce the expression” and the “expression of osteocalcin (OCN/BGLAP)” value [6] was “induce the expression”. The “proportion of cells in the G2/M phase” value ([4]; 2.5 nM and 5 nM) was “no significant change”, the “proportion of S phase cells” value ([4]; 2.5 nM) was 21.807 ± 2.844% and the “percentage of cells in G0/G1 phase” value ([4]; 2.5 nM) was 67.36 ± 6.067%. The “proportion of S phase cells” value ([4]; 5 nM) was 19.940 ± 4.321%, the “percentage of cells in G0/G1 phase” value ([4]; 5 nM) was 68.117 ± 2.743% and the “calcium deposition (ARS staining) versus control cells” value ([7]; 2.5 nM) was “much higher amounts of calcium phosphate crystals than the control cells”. For the same compound, the “calcium deposition (ARS staining) versus control cells” value ([7]; 5 nM) was “much higher amounts of calcium phosphate crystals than the control cells”, the pIC50 ([8]; 24 h) was 8.05 and the pIC50 ([8]; 48 h) was 8.18. For the same compound, the “doses resulting in cytotoxicity to mBM-MSCs” value ([8]; mBM-MSCs, MTT, 24 h and 48 h) was “higher than 5 nM”.
